Consider one compound from patent US20250381165A1, “Method of Use for Benzofuran Compounds” (Tampa Bay Research Institute, Inc., priority 2024, published 2025).

For series [1], the system named is DC2.4 cells (B3Z activation). Nature of the series: Cross-presentation of whole OVA by DC2.4 to B3Z. The series is classed as cell-based, murine. To be noted: co-treatment 6 h, 0.5 mg/mL OVA; p<0.001 all doses. On the procedure:
DC2.4 cells (5×10^5 cells/ml) were seeded at 100 μL/well in 96 well plates and cultured overnight. The cells were washed with DPBS, and co-exposed to 0.5 mg/mL soluble whole OVA, along with increasing concentrations of BzFβ for 6 h, The cells were then co-cultured with equal number of B3Z cells at 37° C. for 19 h.

A short description of series [2]: In vivo toxicity after gavage, iv or im injection. How it is done: Six- to ten-week-old male and female C57BL/6NCrl mice (cat. no. 027, Charles River Laboratories, Wilmington MA) were used for all animal studies. The mice were maintained in accord with the NIH Guide for the Care and Use of Laboratory Animals. Experimental procedures were performed in accord with research protocols approved by the Tampa Bay Research Institute's Institutional Animal Care and Use Committee. Mice were maintained in an INOVIVE individually ventilated cage system with 3 mice per cage containing 100% virgin wood pulp bedding (Harlan Teklad™, Harlan Sprague Dawley Inc., Indianapolis, IA; cat. no. 7099). Water and food (Harland Teklad™; cat. no. 8640) were available ad libitum. The mice were maintained on a cycle of 12 h of light and 12 h of dark in an environment with a temperature of 74-76° […]. and 40-60% humidity. All cages underwent 40 air changes hourly in the negative pressure mode, in accordance with manufacturer's recommendations. Both the intake and exhaust air from the system were filtered through HEPA filters to maintain a clean environment. […]
Mice were gavaged with BzFβ at doses ranging from 25 mg/kg body to 100 mg/kg body weight, injected intravenously (iv) with 50 μg BzFβ or injected intramuscularly with BzFβ at 25 to 40 mg/kg body weight. For two weeks post-treatment, water intake and weight were monitored. […]

A short description of series [3]: Detection of BzFβ in serum by HPLC. The series is classed as in vivo, C57BL/6NCrl mice. How it is done: Six- to ten-week-old male and female C57BL/6NCrl mice (Charles River Laboratories, Wilmington MA; cat. no. 027) were used for all animal studies. The mice were maintained in accord with the NIH Guide for the Care and Use of Laboratory Animals. Experimental procedures were performed in accord with research protocols approved by the Tampa Bay Research Institute's Institutional Animal Care and Use Committee. Mice were maintained in an INOVIVE individually ventilated cage system with 3 mice per cage containing 100% virgin wood pulp bedding (Harlan Teklad™, Harlan Sprague Dawley Inc., Indianapolis, IA; cat. no. 7099). Water and food (Harlan Teklad™, cat. no. 8640) were available ad libitum. The mice were maintained on a cycle of 12 h of light and 12 h of dark in an environment with a temperature of 74-76° […]. and 40-60% humidity. All cages underwent 40 air changes hourly in the negative pressure mode, in accordance with manufacturer's recommendations. Both the intake and exhaust air from the system were filtered through HEPA filters to maintain a clean environment. Stock solutions of BzFβ were solubilized in alkaline water (pH 10) and then sterile filtered through 0.22 µm syringe filters. BzFβ used for iv or im injections was diluted in 0.9% saline (normal saline). The stock solutions of the SIINFEKL peptide were prepared in 1× calcium/magnesium free Dulbecco's phosphate-buffered saline (DPBS; ThermoFisher Scientific, cat. no. 14190144).
After overnight fasting, six-to ten-week-old mice were gavaged with 1-2 mg of BzFβ solubilized in 200 μL alkaline water or were injected intramuscular (IM) or intravenous with 100 μg diluted in normal saline. After various times mice were anesthetized using 2.0% isoflurane with O2 at 1 L/min, and 200-500 μL of blood was collected in a microfuge tube containing 700 μL of 50 mM EDTA in DPBS as an anticoagulant. The blood samples were centrifuged at 4500×g for 20 min to separate the plasma from the cells. The resulting plasma (200 μL) was removed and extracted with 4 mL methanol. This mixture was vortexed for 30 s and centrifuged at 4000×g for 10 min at 4° C. The supernatant was collected and dried using a SpeedVac (SC210 Å) under a vacuum of 0.4 torr at 65° C. When dry, the sample was removed and resuspended in 100 μL methanol and then re-centrifuged to remove any precipitates. A 20 μL sample of this mixture was analyzed by HPLC.
BzFβ was detected in the serum using a Shimadzu high performance liquid chromatography (HPLC) system. The Shimadzu system consisted of two LC-20AR pumps, a SPD-M20A diode array UV-Vis detector, and a 20 μL injection loop onto a Phenomenex Luna […] Analytical PFP column 100 A (cat. no. OOF-4448-E0). Analysis and data collection were conducted using Shimadzu LabSolutions software. Samples ([…]) were injected onto the column and separated using a gradient of acetonitrile (ACN) and water as the mobile phase. The gradient started with 10% ACN and increased stepwise to 80% ACN for peak clarity. Buffer B was water adjusted to pH 2.5 using phosphoric acid. The column was kept at a constant temperature of 30° C. (Chai, et al., Comprehensive study of the intestinal absorption of four phenolic compounds after oral administration of Ananas comosus leaf extract in vivo and in vitro. Afr J Pharm Pharmacol. 2013 Jul. 15; 7(26):1781-92).
Following up on the prediction that BzFβ should be able to be absorbed through the GI tract and gain access to the systemic circulation, C57Bl/6crl mice were gavaged (po) with either 200 μL of alkaline water (negative control) or with 2 mg of BzFβ solubilized in 200 μL alkaline water. Fifteen minutes later, peripheral blood was obtained. The serum was extracted with methanol, lyophilized, and then examined by HPLC for the presence of BzFβ. […] BzFβ was then administered to another group of mice iv (100 μg), im ([…]), and po (1 mg). After 15 min, the serum was collected, extracted with methanol, and then analyzed by HPLC. […]

Take `O=C(O)/C=C/c1ccc2occc2c1` [BzFβ, (2E)-3-(1-benzofuran-5-yl)prop-2-enoic acid]: the “B3Z response, cross-presentation of OVA” value in series [1] is on record as “significantly enhance the B3Z response”. The in vivo toxicity result in series [2] (at the doses tested) was “non-toxic”. Moreover, the “body and organ weights” value in series [2] (gavage 25-100 mg/kg, iv 50 μg, im 25-40 mg/kg, two weeks) is recorded as “no differences were measured”. Also, in series [3] (1, 2 and 3 h post im injection of 1 mg), the persistence in serum entry is on record as “still detectable”. In addition, in series [3] (GI tract and bloodstream), the “stability in vivo compared with dipeptides” value is “much more stable in the GI tract and bloodstream”. For the same compound, in series [3] (iv (100 μg), im (100 g), po (1 mg), 15 min), the “presence in serum by HPLC” value is recorded as “presence of the appropriate peak”. In series [3] (oral administration), the “earliest detection in blood plasma” value amounted to 30 min and the “latest detection in blood plasma” value came out at 3 h. Moreover, the “presence in serum by HPLC” value in series [3] (po 2 mg, fifteen minutes) is listed as “revealed the presence of BzFβ”.
